Patent US20170209448A1, “TREATMENT REGIMENS USING MULTIPLE PHARMACEUTICAL AGENTS” (INTELLIKINE LLC, priority 2011, published 2017)
pIC50: −log10 of the molar value.

Molecular target: T1, mTORC (Homo sapiens, UniProt P42345)
T1 construct: purchased Invitrogen
Experiment: mTORC in vitro IC50 (Table 2)
Format: biochemical
Settings: not given

T1 sequence (P42345 1360-2549 limits assumed): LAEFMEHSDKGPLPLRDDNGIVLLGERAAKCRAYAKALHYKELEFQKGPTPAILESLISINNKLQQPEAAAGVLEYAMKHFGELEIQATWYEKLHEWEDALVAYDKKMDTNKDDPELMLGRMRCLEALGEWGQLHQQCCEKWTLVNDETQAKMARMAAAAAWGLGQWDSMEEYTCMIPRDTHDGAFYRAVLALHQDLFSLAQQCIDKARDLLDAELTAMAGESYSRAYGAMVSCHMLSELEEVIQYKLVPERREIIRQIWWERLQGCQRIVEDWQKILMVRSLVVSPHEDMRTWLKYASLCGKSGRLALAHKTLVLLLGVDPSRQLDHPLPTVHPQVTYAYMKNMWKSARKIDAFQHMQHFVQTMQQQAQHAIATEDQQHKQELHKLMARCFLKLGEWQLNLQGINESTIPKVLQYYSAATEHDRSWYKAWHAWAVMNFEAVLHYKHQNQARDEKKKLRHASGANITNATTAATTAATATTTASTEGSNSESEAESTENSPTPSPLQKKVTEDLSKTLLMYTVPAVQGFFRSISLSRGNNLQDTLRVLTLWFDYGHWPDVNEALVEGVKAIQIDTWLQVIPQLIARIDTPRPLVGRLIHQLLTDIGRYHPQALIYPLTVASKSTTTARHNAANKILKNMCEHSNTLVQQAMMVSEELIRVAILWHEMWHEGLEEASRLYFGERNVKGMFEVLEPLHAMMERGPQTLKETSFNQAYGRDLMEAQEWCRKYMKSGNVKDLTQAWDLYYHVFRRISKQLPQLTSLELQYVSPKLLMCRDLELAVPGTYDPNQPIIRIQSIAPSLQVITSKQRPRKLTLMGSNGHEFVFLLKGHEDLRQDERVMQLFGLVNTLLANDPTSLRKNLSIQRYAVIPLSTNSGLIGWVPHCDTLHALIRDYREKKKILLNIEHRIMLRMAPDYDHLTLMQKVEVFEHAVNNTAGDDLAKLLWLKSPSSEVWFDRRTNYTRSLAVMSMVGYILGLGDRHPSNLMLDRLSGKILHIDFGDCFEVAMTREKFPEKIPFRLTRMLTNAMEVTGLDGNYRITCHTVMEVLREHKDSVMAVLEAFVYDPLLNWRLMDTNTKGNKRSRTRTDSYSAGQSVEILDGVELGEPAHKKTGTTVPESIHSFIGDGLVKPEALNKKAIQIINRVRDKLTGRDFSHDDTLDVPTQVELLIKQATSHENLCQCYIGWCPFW

SMILES | pIC50
CC(C)n1nc(-c2cc3cc(F)ccc3[nH]2)c2c(N)ncnc21 [Compound 3] | > 6.30
CC(C)n1nc(-c2cc3ccccc3[nH]2)c2c(N)ncnc21 [Compound 7] | > 7.00
CC(C)n1nc(-c2cc3c(Cl)cccc3[nH]2)c2c(N)ncnc21 [Compound 9] | > 7.30
COc1cccc2cc(-c3nn(C(C)C)c4ncnc(N)c34)[nH]c12 [Compound 10] | > 7.60
Nc1ncnc2c1c(-c1cc3cc(O)ccc3[nH]1)nn2C1CCCC1 [Compound 12] | > 8.00
CC(C)n1nc(-c2cc3ccc(O)cc3[nH]2)c2c(N)ncnc21 [Compound 21] | > 7.30
CC(C)n1nc(-c2cc3ccc(C(N)=O)cc3[nH]2)c2c(N)ncnc21 [Compound 25] | > 6.30
Nc1ncnc2c1c(-c1cc3cc(O)ccc3[nH]1)nn2C1CCCCC1 [Compound 26] | > 8.00
Nc1ncnc2c1c(-c1cc3cc(O)ccc3[nH]1)nn2C1CCC1 [Compound 27] | > 7.60
CCOC(=O)Cn1nc(-c2cc3cc(O)ccc3[nH]2)c2c(N)ncnc21 [Compound 28] | > 6.30
CC(=O)N1CCC(n2nc(-c3cc4cc(O)ccc4[nH]3)c3c(N)ncnc32)CC1 [Compound 30] | > 7.60
Nc1ncnc2c1c(-c1cc3cc(O)ccc3[nH]1)nn2C1CCN(C(=O)C2CC2)CC1 [Compound 31] | > 7.60
CC(C)n1nc(-c2cc3cc(O)c(Cl)cc3[nH]2)c2c(N)ncnc21 [Compound 32] | > 6.30
Nc1ncnc2c1c(-c1cc3cc(O)ccc3[nH]1)nn2CCN1CCOCC1 [Compound 33] | > 6.30
Nc1ncnc2c1c(-c1cc3cccc(O)c3[nH]1)nn2C1CCCC1 [Compound 36] | > 8.00
Nc1ncnc2c1c(-c1cc3cc(O)ccc3[nH]1)nn2Cc1cccnc1 [Compound 38] | > 6.30
CC(C)n1nc(-c2cc3c(Cl)ccc(O)c3[nH]2)c2c(N)ncnc21 [Compound 39] | > 8.00

SMILES | pIC50
COCCn1nc(-c2cc3cc(O)ccc3[nH]2)c2c(N)ncnc21 [Compound 40] | > 7.00
Nc1ncnc2c1c(-c1cc3cccc(O)c3[nH]1)nn2C1CCN(C(=O)C2CC2)CC1 [Compound 41] | > 8.00
Cc1nccn1CCn1nc(-c2cc3cc(O)ccc3[nH]2)c2c(N)ncnc21 [Compound 44] | > 7.00
Nc1ncnc2c1c(-c1cc3c(Cl)cccc3[nH]1)nn2C1CCOCC1 [Compound 48] | > 7.30
Nc1ncnc2c1c(-c1cc3cc(O)ccc3[nH]1)nn2C1CC(N2CCOCC2)C1 (stereo not drawn) [Compound 49] | > 8.00
CC(C)n1nc(-c2cc3cccc(Cl)c3[nH]2)c2c(N)ncnc21 [Compound 50] | > 7.30
Nc1ncnc2c1c(-c1cc3cccc(Cl)c3[nH]1)nn2C1CCOCC1 [Compound 51] | > 7.30
CN1CCN(C2CC(n3nc(-c4cc5cc(O)ccc5[nH]4)c4c(N)ncnc43)C2)CC1 (stereo not drawn) [Compound 52] | > 6.30
Nc1ncnc2c1c(-c1cc3cc(O)ccc3[nH]1)nn2C1CC(=O)C1 [Compound 53] | > 7.00
Nc1ncnc2c1c(-c1cc3cc(O)ccc3[nH]1)nn2C1CC(O)C1 (stereo not drawn) [Compound 54] | > 7.60
CC(C)N1CCC(n2nc(-c3cc4cc(O)ccc4[nH]3)c3c(N)ncnc32)CC1 [Compound 55] | > 6.30
Nc1ncnc2c1c(-c1cc3cc(O)ccc3[nH]1)nn2C1CCC(N2CCOCC2)CC1 (stereo not drawn) [Compound 57] | > 7.60
Nc1ncnc2c1c(-c1cc3ccc(O)cc3[nH]1)nn2C1CCOCC1 [Compound 60] | > 7.00
COc1ccc(Cl)c2cc(-c3nn(C4CCOCC4)c4ncnc(N)c34)[nH]c12 [Compound 61] | > 7.60
CC(C)N1CCC(n2nc(-c3cc4cccc(O)c4[nH]3)c3c(N)ncnc32)CC1 [Compound 64] | > 7.60
CC(=O)N1CCC(n2nc(-c3cc4ccc(O)cc4[nH]3)c3c(N)ncnc32)CC1 [Compound 65] | > 8.00
CC(C)N1CCC(n2nc(-c3cc4c(Cl)ccc(O)c4[nH]3)c3c(N)ncnc32)CC1 [Compound 71] | > 7.00

Tested on: PC3
Experiment: PC3 tumor cell line proliferation assay
Format: cell-based
Settings: Homo sapiens, PC-3; Table 1; read-out: PC3 IC50
Experimental: The assay is performed in a 96 well microtiter plate using Alamar Blue reduction. […] A compound disclosed herein is diluted in Tumor Cell Media and added in a 10 ul volume. […] A volume of 10 uL of Alamar Blue reagent is added to each well and plates are incubated for 3 hours at 37 C and 5% CO2.

SMILES | pIC50
CC(=O)Nc1nc2cc(-c3nn(C(C)C)c4ncnc(N)c34)ccc2o1 [Compound 2] | > 6.00
CC(C)n1nc(-c2ccc3nc(N)oc3c2)c2c(N)ncnc21 [Compound 4] | > 5.00
Nc1nc2cc(-c3nn(C4CCOCC4)c4ncnc(N)c34)ccc2o1 [Compound 5] | > 7.00
Nc1nc2cc(-c3nn(C4CCC(N5CCOCC5)CC4)c4ncnc(N)c34)ccc2o1 (stereo not drawn) [Compound 6] | > 6.00
CC(=O)N1CCC(n2nc(-c3ccc4oc(N)nc4c3)c3c(N)ncnc32)CC1 [Compound 7] | > 5.00
CC(C)n1cc(-c2ccc3oc(N)nc3c2)c2c(N)ncnc21 [Compound 8] | > 7.00
Nc1nc2cc(-c3cn(C4CCOCC4)c4ncnc(N)c34)ccc2o1 [Compound 9] | > 7.00
CC(C)n1nc(-c2ccc3onc(N)c3c2)c2c(N)ncnc21 [Compound 10] | < 5.00
CC(=O)Nc1noc2cc(-c3nn(C(C)C)c4ncnc(N)c34)ccc12 [Compound 11] | < 5.00
CC(C)n1nc(-c2ccc3c(N)noc3c2)c2c(N)ncnc21 [Compound 12] | < 5.00

Same assay, conditions: Homo sapiens, PC-3; Table 2; read-out: PC3 proliferation

SMILES | pIC50
CC(C)n1nc(-c2cc3ccc(C#N)cc3[nH]2)c2c(N)ncnc21 [Compound 24] | < 6.30
CC(C)n1nc(-c2cc3ccc(C(N)=O)cc3[nH]2)c2c(N)ncnc21 [Compound 25] | < 6.30

Tested on: A498 xenografts
Experiment: Tumor hypoxia by pimonidazole staining in A498 xenografts
Format: in vivo, Mice
Settings: 6 cycles, doses and schedules of Table 5 (Compound A 1 mg/kg PO QD or 3QW; Sorafenib 40 mg/kg IP 4QW; alternating 3QW/4QW), tumor 2 hr after dosing
Experimental: Mice bearing A498 xenografts were treated as shown below in Table 5 for 6 weeks or cycles (each cycle consisting of 7 days). During cycle 6, mice were sacrificed 2 hours after dosing. Pimonidazole hydrochloride, which binds to proteins in hypoxia conditions, was injected intraperitoneally 60 minutes before the tumor was harvested. Tumors were collected either at 2 hr of vehicle (Groups A, C, and D), Compound A (Groups B, C, and E) or sorafenib (Group D) dosing. Tumor tissues were formalin fixed and paraffin embedded. Tissue sections were stained with anti-pimonidazole antibody and visualized with DAB (dark brown).

SMILES | tumor hypoxia (anti-pimonidazole staining)
CNC(=O)c1cc(Oc2ccc(NC(=O)Nc3ccc(Cl)c(C(F)(F)F)c3)cc2)ccn1 [Sorafenib, sorafenib] | caused necrosis and cells surrounding the necrosis area appear pimonidazole positive

Same assay, conditions: intermittent dosing (Table 5), off phase of the cycle

SMILES | tumor hypoxia (anti-pimonidazole staining), off phase
CNC(=O)c1cc(Oc2ccc(NC(=O)Nc3ccc(Cl)c(C(F)(F)F)c3)cc2)ccn1 [Sorafenib, sorafenib] | pimonidazole staining intensity was reduced
